Measurements taken from US10160755B2 (Plexxikon Inc., priority 2015, dated 2018).

How the values were obtained:
FLT3-ITD = molecular target: T1, FLT3-ITD (Homo sapiens, UniProt P36888); experiment: FLT3-ITD biochemical kinase assay (AlphaScreen)
T1 construct: FLT3-ITD; Invitrogen #PV6190
T1 sequence (P36888 1-993): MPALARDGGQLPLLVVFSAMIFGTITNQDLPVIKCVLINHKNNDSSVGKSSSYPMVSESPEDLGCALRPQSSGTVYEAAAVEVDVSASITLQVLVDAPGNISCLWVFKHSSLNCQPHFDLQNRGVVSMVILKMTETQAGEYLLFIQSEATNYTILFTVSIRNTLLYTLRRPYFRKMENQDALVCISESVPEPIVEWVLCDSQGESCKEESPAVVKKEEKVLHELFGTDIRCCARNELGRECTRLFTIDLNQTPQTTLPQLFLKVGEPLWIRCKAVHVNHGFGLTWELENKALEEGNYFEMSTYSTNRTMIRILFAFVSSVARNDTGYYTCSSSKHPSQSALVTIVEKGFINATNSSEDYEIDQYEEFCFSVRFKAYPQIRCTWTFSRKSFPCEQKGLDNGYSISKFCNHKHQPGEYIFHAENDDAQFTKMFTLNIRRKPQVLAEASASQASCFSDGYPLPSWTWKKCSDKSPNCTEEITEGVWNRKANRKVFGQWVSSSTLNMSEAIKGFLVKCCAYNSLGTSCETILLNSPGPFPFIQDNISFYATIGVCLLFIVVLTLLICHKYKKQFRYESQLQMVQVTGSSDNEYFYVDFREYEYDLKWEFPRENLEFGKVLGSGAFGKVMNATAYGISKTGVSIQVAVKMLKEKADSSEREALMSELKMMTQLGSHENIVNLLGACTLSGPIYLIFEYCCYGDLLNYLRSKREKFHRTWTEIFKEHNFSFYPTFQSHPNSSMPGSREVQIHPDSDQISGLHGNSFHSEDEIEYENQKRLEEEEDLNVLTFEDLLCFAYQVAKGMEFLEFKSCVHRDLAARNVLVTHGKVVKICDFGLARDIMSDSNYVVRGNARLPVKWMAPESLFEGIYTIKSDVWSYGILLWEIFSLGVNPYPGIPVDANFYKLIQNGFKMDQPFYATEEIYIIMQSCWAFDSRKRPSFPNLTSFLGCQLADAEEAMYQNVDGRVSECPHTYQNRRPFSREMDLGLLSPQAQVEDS
Procedure, shortened: (§1)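 Recombinant FLT3 mutant kinases phosphorylate biotin-poly(Glu4-Tyr) peptide (30 nM) at 10 μM ATP for D835Y or 100 μM for ITD. Phosphorylation detected by AlphaScreen: streptavidin donor beads (20 min) then anti-phosphotyrosine PY20 acceptor beads (60 min, RT), signal at 580 nm; inhibition lowers signal.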

FLT3-D835Y = molecular target: T2, FLT3-D835Y (Homo sapiens, UniProt P36888, D835Y); experiment: FLT3-D835Y biochemical kinase assay (AlphaScreen)
T2 construct: purchased Invitrogen PV3967
T2 sequence (P36888 27-993 D835Y): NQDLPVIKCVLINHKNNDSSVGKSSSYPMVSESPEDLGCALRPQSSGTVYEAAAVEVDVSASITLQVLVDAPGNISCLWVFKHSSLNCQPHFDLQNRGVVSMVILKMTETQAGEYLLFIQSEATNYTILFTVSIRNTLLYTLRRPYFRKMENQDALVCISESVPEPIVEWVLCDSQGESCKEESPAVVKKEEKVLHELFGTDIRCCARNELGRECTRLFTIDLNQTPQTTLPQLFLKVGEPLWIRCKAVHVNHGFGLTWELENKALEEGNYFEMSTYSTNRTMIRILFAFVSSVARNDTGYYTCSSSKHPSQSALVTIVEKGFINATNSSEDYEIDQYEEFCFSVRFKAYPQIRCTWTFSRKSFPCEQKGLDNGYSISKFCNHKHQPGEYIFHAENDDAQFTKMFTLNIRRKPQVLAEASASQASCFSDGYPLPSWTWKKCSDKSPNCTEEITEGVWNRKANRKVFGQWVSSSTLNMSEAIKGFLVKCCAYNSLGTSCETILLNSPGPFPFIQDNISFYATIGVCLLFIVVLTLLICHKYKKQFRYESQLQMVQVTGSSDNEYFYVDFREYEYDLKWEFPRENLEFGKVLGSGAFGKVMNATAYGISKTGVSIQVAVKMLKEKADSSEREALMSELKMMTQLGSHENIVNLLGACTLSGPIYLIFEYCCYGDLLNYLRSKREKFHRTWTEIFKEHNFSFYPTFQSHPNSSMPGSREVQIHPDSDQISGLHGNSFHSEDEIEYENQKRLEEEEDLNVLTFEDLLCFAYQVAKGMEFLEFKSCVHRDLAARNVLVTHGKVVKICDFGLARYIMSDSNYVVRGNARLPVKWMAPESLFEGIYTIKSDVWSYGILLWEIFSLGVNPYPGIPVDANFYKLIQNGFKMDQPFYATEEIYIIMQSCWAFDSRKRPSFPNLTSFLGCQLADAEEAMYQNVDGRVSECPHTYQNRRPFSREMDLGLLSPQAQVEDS
Procedure, shortened: as §1

c-Kit = c-Kit (Homo sapiens, UniProt P10721); experiment: c-Kit biochemical assay (per US 2007/0032519)
Chain of c-Kit (P10721 26-976): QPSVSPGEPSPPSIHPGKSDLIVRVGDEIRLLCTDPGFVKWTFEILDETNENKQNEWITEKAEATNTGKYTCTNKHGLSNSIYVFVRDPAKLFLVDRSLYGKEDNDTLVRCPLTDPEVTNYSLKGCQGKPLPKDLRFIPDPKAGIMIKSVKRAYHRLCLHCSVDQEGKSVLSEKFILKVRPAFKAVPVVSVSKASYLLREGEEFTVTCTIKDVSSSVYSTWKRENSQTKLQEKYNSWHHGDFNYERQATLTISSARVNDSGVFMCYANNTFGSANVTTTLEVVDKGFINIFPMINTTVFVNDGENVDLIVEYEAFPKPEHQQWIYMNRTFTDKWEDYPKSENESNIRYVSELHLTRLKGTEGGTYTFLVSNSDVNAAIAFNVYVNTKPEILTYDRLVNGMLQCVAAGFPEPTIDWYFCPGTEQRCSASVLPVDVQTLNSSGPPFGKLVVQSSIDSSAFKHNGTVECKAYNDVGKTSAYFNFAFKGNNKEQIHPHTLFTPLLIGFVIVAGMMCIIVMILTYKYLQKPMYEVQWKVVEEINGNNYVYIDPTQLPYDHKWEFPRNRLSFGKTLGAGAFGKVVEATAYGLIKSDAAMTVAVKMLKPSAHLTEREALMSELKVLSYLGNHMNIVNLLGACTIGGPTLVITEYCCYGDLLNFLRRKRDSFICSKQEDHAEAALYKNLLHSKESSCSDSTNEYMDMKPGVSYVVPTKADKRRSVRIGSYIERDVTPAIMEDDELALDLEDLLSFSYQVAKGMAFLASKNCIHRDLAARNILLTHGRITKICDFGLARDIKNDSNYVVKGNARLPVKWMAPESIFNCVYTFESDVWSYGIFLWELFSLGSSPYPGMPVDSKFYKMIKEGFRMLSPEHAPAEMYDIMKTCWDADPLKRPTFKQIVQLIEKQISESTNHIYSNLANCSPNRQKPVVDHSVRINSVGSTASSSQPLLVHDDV
Procedure, shortened: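 Biochemical kinase inhibition run per US 2007/0032519; values reported as binned IC50 ranges (0.0001–1 μM, 1–10 μM, 10–200 μM).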

SMILES | IC50 (FLT3-ITD) | IC50 (FLT3-D835Y) | IC50 (c-Kit)
Nc1nc2cc(-c3c[nH]c4ncccc34)ccc2[nH]1 [P-010, 5-(1H-pyrrolo[2,3-b]pyridin-3-yl)-1H-benzimidazol-2-amine] | 1 to 10 µM | 1 to 10 µM | 10 to 200 µM
COc1ccc(-c2cnc3[nH]cc(-c4ccc5ncn(C)c5c4)c3n2)cn1 [P-041, 2-(6-methoxy-3-pyridyl)-7-(3-methylbenzimidazol-5-yl)-5H-pyrrolo[2,3-b]pyrazine] | 0.0001 to 1 µM | 0.0001 to 1 µM | 1 to 10 µM
CN1CCOc2ccc(-c3c[nH]c4ncc(-c5cccc(NS(C)(=O)=O)c5)nc34)cc21 [P-065, N-[3-[7-(4-methyl-2,3-dihydro-1,4-benzoxazin-6-yl)-5H-pyrrolo[2,3-b]pyrazin-2-yl]phenyl]methanesulfonamide] | 0.0001 to 1 µM | 0.0001 to 1 µM | 10 to 200 µM
Cc1nc2cc(-c3c[nH]c4ncccc34)ccc2[nH]1 [P-012, 2-methyl-5-(1H-pyrrolo[2,3-b]pyridin-3-yl)-1H-benzimidazole] | 1 to 10 µM | 1 to 10 µM | 10 to 200 µM
CS(=O)(=O)Nc1cccc(-c2cnc3[nH]cc(-c4ccc5ncn(C6CCCC6)c5c4)c3n2)c1 [P-070, N-[3-[7-(3-cyclopentylbenzimidazol-5-yl)-5H-pyrrolo[2,3-b]pyrazin-2-yl]phenyl]methanesulfonamide] | 0.0001 to 1 µM | 0.0001 to 1 µM | 1 to 10 µM
Clc1cnc2[nH]cc(-c3ccc4nc[nH]c4c3)c2c1 [P-035, 3-(3H-benzimidazol-5-yl)-5-chloro-1H-pyrrolo[2,3-b]pyridine] | 0.0001 to 1 µM | 0.0001 to 1 µM | 1 to 10 µM
COc1cc(-c2cnc3[nH]cc(-c4ccc5ncn(C)c5c4)c3c2)ccc1C#N [P-117, 2-methoxy-4-[3-(3-methylbenzimidazol-5-yl)-1H-pyrrolo[2,3-b]pyridin-5-yl]benzonitrile] | 0.0001 to 1 µM | 0.0001 to 1 µM | 1 to 10 µM
Cn1cnc2ccc(-c3c[nH]c4ncc(OCC#N)cc34)cc21 [P-084, 2-[[3-(3-methylbenzimidazol-5-yl)-1H-pyrrolo[2,3-b]pyridin-5-yl]oxy]acetonitrile] | 0.0001 to 1 µM | 0.0001 to 1 µM | 1 to 10 µM
COc1ccc2c(-c3ccc4ncn(C)c4c3)c[nH]c2n1 [P-034, 6-methoxy-3-(3-methylbenzimidazol-5-yl)-1H-pyrrolo[2,3-b]pyridine] | 1 to 10 µM | 1 to 10 µM | 10 to 200 µM
Cn1cnc2ccc(-c3c[nH]c4ncc(-c5cccc(C#N)c5)cc34)cc21 [P-089, 3-[3-(3-methylbenzimidazol-5-yl)-1H-pyrrolo[2,3-b]pyridin-5-yl]benzonitrile] | 0.0001 to 1 µM | 0.0001 to 1 µM | 10 to 200 µM
CC1(COc2cnc3[nH]cc(-c4ccc5[nH]cnc5c4)c3c2)COC1 [P-008, 3-(1H-benzimidazol-5-yl)-5-[(3-methyloxetan-3-yl)methoxy]-1H-pyrrolo[2,3-b]pyridine] | 0.0001 to 1 µM | 1 to 10 µM | 1 to 10 µM
COc1cnc2[nH]cc(-c3ccc4ncsc4c3)c2c1 [P-029, 6-(5-methoxy-1H-pyrrolo[2,3-b]pyridin-3-yl)-1,3-benzothiazole] | 0.0001 to 1 µM | 0.0001 to 1 µM | 1 to 10 µM
COc1cc(-c2cnc3[nH]cc(-c4ccc5ncn(CC(F)(F)F)c5c4)c3n2)ccn1 [P-098, 2-(2-methoxy-4-pyridyl)-7-[3-(2,2,2-trifluoroethyl)benzimidazol-5-yl]-5H-pyrrolo[2,3-b]pyrazine] | 0.0001 to 1 µM | 0.0001 to 1 µM | 10 to 200 µM
COc1cnc2[nH]cc(-c3ccc4[nH]nnc4c3)c2c1 [P-014, 5-(5-methoxy-1H-pyrrolo[2,3-b]pyridin-3-yl)-1H-benzotriazole] | 0.0001 to 1 µM | 0.0001 to 1 µM | 10 to 200 µM

Second part, the compound after the results:

IC50 (FLT3-ITD) | IC50 (FLT3-D835Y) | IC50 (c-Kit) | SMILES
0.0001 to 1 µM | 0.0001 to 1 µM | 10 to 200 µM | Cn1cnc2ccc(-c3c[nH]c4ncc(-c5cccc(C(=O)NC6CC6)c5)cc34)cc21 [P-090, N-cyclopropyl-3-[3-(3-methylbenzimidazol-5-yl)-1H-pyrrolo[2,3-b]pyridin-5-yl]benzamide]
0.0001 to 1 µM | 1 to 10 µM | 10 to 200 µM | O=S(=O)(C1CC1)N1CCC=C(c2cnc3[nH]cc(-c4ccc5[nH]cnc5c4)c3c2)C1 [P-032, 3-(1H-benzimidazol-5-yl)-5-(1-cyclopropylsulfonyl-3,6-dihydro-2H-pyridin-5-yl)-1H-pyrrolo[2,3-b]pyridine]
0.0001 to 1 µM | 0.0001 to 1 µM | 10 to 200 µM | COc1cc(-c2cnc3[nH]cc(-c4ccc5ncn(C)c5c4)c3c2)cc(C)n1 [P-124, 5-(2-methoxy-6-methyl-4-pyridyl)-3-(3-methylbenzimidazol-5-yl)-1H-pyrrolo[2,3-b]pyridine]
0.0001 to 1 µM | 0.0001 to 1 µM | 10 to 200 µM | COc1cnc2[nH]cc(-c3ccc4ncn(C5CC5)c4c3)c2c1 [P-060, 1-cyclopropyl-6-(5-methoxy-1H-pyrrolo[2,3-b]pyridin-3-yl)benzimidazole]
0.0001 to 1 µM | 0.0001 to 1 µM | 10 to 200 µM | CC(C)(C)n1cnc2ccc(-c3c[nH]c4ncc(C5=CCN(C(=O)C6CC6)C5)cc34)cc21 [P-134, [3-[3-(3-tert-butylbenzimidazol-5-yl)-1H-pyrrolo[2,3-b]pyridin-5-yl]-2,5-dihydropyrrol-1-yl]-cyclopropyl-methanone]
0.0001 to 1 µM | 0.0001 to 1 µM | 10 to 200 µM | COc1cnc2[nH]cc(-c3ccc4ncn(C)c4c3)c2c1 [P-016, 5-methoxy-3-(3-methylbenzimidazol-5-yl)-1H-pyrrolo[2,3-b]pyridine]
0.0001 to 1 µM | 0.0001 to 1 µM | 10 to 200 µM | Cn1cnc2ccc(-c3c[nH]c4ncc(C#N)cc34)cc21 [P-020, 3-(3-methylbenzimidazol-5-yl)-1H-pyrrolo[2,3-b]pyridine-5-carbonitrile]
0.0001 to 1 µM | 0.0001 to 1 µM | 1 to 10 µM | Cn1cnc2ccc(-c3c[nH]c4ncc(-c5cccc(S(=O)(=O)N6CCCC6)c5)cc34)cc21 [P-122, 1-methyl-6-[5-(3-pyrrolidin-1-ylsulfonylphenyl)-1H-pyrrolo[2,3-b]pyridin-3-yl]benzimidazole]
0.0001 to 1 µM | 0.0001 to 1 µM | 1 to 10 µM | O=C(C1CC1)N1CC=C(c2cnc3[nH]cc(-c4ccc5ncn(CC(F)(F)F)c5c4)c3n2)C1 [P-125, cyclopropyl-[3-[7-[3-(2,2,2-trifluoroethyl)benzimidazol-5-yl]-5H-pyrrolo[2,3-b]pyrazin-2-yl]-2,5-dihydropyrrol-1-yl]methanone]
0.0001 to 1 µM | 0.0001 to 1 µM | 1 to 10 µM | COc1cnc2[nH]cc(-c3ccc4ncn(C5CCCC5)c4c3)c2c1 [P-049, 1-cyclopentyl-6-(5-methoxy-1H-pyrrolo[2,3-b]pyridin-3-yl)benzimidazole]
